# Tests used:
# Assay type in all cases: in vivo
# corn (Zea mays) [1] = experiment: Test G Post-Emergence Protocol; conditions: Zea mays, post-emergence, 312 h; for plant injury at 15.625 g/ha: 15.625 g ai/ha, evaluated after 13 days (100=total damage to plant; 0=no damage to plant), read-out: Corn damage rating; for plant injury at 62.5 g/ha: 62.5 g ai/ha, read-out: Corn damage rating (100=total damage to plant; 0=no damage to plant); for plant injury at 62.5 g/ha / plant injury at 250 g/ha: evaluated after 13 days; for plant injury at 250 g/ha: 250 g ai/ha, read-out: damage to plant, Corn (100=total damage to plant; 0=no damage to plant)
# Method in brief: (§1)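 A glasshouse post-emergence test: 8-day-old plants sprayed at 15.625, 62.5 or 250 g/ha, then grown at 24/16 °C day/night with 14 h light and 65% humidity. Damage rated 13 days later, 0–100.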
# [2] = test system: ivy-leaved morning glory (Ipomoea hederacea); experiment: Test G Post-Emergence Protocol; conditions: Ipomoea, post-emergence, 312 h; for pest or weed control at 15.625 g/ha: 15.625 g ai/ha, evaluated after 13 days (100=total damage to plant; 0=no damage to plant), read-out: Morningglory, Ivy-leaved damage rating; for pest or weed control at 62.5 g/ha: 62.5 g ai/ha, read-out: Morningglory, Ivy-leaved damage rating (100=total damage to plant; 0=no damage to plant); for pest or weed control at 62.5 g/ha / pest or weed control at 250 g/ha: evaluated after 13 days; for pest or weed control at 250 g/ha: 250 g ai/ha, read-out: damage to plant, Morningglory, Ivy-leaved (100=total damage to plant; 0=no damage to plant)
# Method in brief: as §1
# [3] = test system: giant foxtail (Setaria faberi); experiment: Test G Post-Emergence Protocol; conditions: Setaria faberi, post-emergence, 312 h; for pest or weed control at 15.625 g/ha: 15.625 g ai/ha, evaluated after 13 days (100=total damage to plant; 0=no damage to plant), read-out: Foxtail, Giant damage rating; for pest or weed control at 62.5 g/ha: 62.5 g ai/ha, read-out: Foxtail, Giant damage rating (100=total damage to plant; 0=no damage to plant); for pest or weed control at 62.5 g/ha / pest or weed control at 250 g/ha: evaluated after 13 days; for pest or weed control at 250 g/ha: 250 g ai/ha, read-out: damage to plant, Foxtail, Giant (100=total damage to plant; 0=no damage to plant)
# Method in brief: as §1
# [4] = test system: velvetleaf (Abutilon theophrasti); experiment: Test G Post-Emergence Protocol; conditions: Abutilon theophrasti, post-emergence, 312 h; for pest or weed control at 15.625 g/ha: 15.625 g ai/ha, evaluated after 13 days (100=total damage to plant; 0=no damage to plant), read-out: Velvetleaf damage rating; for pest or weed control at 62.5 g/ha: 62.5 g ai/ha, read-out: Velvetleaf damage rating (100=total damage to plant; 0=no damage to plant); for pest or weed control at 62.5 g/ha / pest or weed control at 250 g/ha: evaluated after 13 days; for pest or weed control at 250 g/ha: 250 g ai/ha, read-out: damage to plant, Velvetleaf (100=total damage to plant; 0=no damage to plant)
# Method in brief: as §1
# [5] = test system: redroot pigweed (Amaranthus retroflexus); experiment: Test G Post-Emergence Protocol; conditions: Amaranthus retroflexus, post-emergence, 312 h; for pest or weed control at 15.625 g/ha: 15.625 g ai/ha, evaluated after 13 days (100=total damage to plant; 0=no damage to plant), read-out: Pigweed, Redroot damage rating; for pest or weed control at 62.5 g/ha: 62.5 g ai/ha, read-out: Pigweed, Redroot damage rating (100=total damage to plant; 0=no damage to plant); for pest or weed control at 62.5 g/ha / pest or weed control at 250 g/ha: evaluated after 13 days; for pest or weed control at 250 g/ha: 250 g ai/ha, read-out: damage to plant, Pigweed, Redroot (100=total damage to plant; 0=no damage to plant)
# Method in brief: as §1
# [6] = test system: barnyardgrass (Echinochloa crus-galli); experiment: Test G Post-Emergence Protocol; conditions: Echinochloa crus-galli, post-emergence, 312 h; for pest or weed control at 15.625 g/ha: 15.625 g ai/ha, evaluated after 13 days (100=total damage to plant; 0=no damage to plant), read-out: Barnyardgrass damage rating; for pest or weed control at 62.5 g/ha: 62.5 g ai/ha, read-out: Barnyardgrass damage rating (100=total damage to plant; 0=no damage to plant); for pest or weed control at 62.5 g/ha / pest or weed control at 250 g/ha: evaluated after 13 days; for pest or weed control at 250 g/ha: 250 g ai/ha, read-out: damage to plant, Barnyardgrass (100=total damage to plant; 0=no damage to plant)
# Method in brief: as §1
# corn (Zea mays) [7] = experiment: Test G Pre-Emergence Protocol; conditions: Zea mays, pre-emergence, 312 h, evaluated after 13 days; for plant injury at 15.625 g/ha: 15.625 g ai/ha; for plant injury at 15.625 g/ha / plant injury at 250 g/ha: read-out: Corn damage rating (100=total damage to plant; 0=no damage to plant); for plant injury at 62.5 g/ha: 62.5 g ai/ha, 100=total damage to plant, 0=no damage to plant, read-out: plant damage rating, Corn; for plant injury at 250 g/ha: 250 g ai/ha
# Method in brief: (§2)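 Scores are visual damage ratings from 0 (no damage) to 100 (total plant kill), taken 13 days after treatment. Compound was sprayed one day post-sowing at 15.625, 62.5 or 250 g/ha in 50:50 acetone/water with 0.5% Tween 20.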
# [8] = test system: ivy-leaved morning glory (Ipomoea hederacea); experiment: Test G Pre-Emergence Protocol; conditions: Ipomoea, pre-emergence, 312 h, evaluated after 13 days; for pest or weed control at 15.625 g/ha: 15.625 g ai/ha, read-out: Morning-glory, Ivy-leaved damage rating (100=total damage to plant; 0=no damage to plant); for pest or weed control at 62.5 g/ha: 62.5 g ai/ha, 100=total damage to plant, 0=no damage to plant, read-out: plant damage rating, Morningglory, Ivy-leaved; for pest or weed control at 250 g/ha: 250 g ai/ha, read-out: Morningglory, Ivy-leaved damage rating (100=total damage to plant; 0=no damage to plant)
# Method in brief: as §2
# [9] = test system: giant foxtail (Setaria faberi); experiment: Test G Pre-Emergence Protocol; conditions: Setaria faberi, pre-emergence, 312 h, evaluated after 13 days; for pest or weed control at 15.625 g/ha: 15.625 g ai/ha; for pest or weed control at 15.625 g/ha / pest or weed control at 250 g/ha: read-out: Foxtail, Giant damage rating (100=total damage to plant; 0=no damage to plant); for pest or weed control at 62.5 g/ha: 62.5 g ai/ha, 100=total damage to plant, 0=no damage to plant, read-out: plant damage rating, Foxtail, Giant; for pest or weed control at 250 g/ha: 250 g ai/ha
# Method in brief: as §2
# [10] = test system: velvetleaf (Abutilon theophrasti); experiment: Test G Pre-Emergence Protocol; conditions: Abutilon theophrasti, pre-emergence, 312 h, evaluated after 13 days; for pest or weed control at 15.625 g/ha: 15.625 g ai/ha; for pest or weed control at 15.625 g/ha / pest or weed control at 250 g/ha: read-out: Velvetleaf damage rating (100=total damage to plant; 0=no damage to plant); for pest or weed control at 62.5 g/ha: 62.5 g ai/ha, 100=total damage to plant, 0=no damage to plant, read-out: plant damage rating, Velvetleaf; for pest or weed control at 250 g/ha: 250 g ai/ha
# Method in brief: as §2
# [11] = test system: redroot pigweed (Amaranthus retroflexus); experiment: Test G Pre-Emergence Protocol; conditions: Amaranthus retroflexus, pre-emergence, 312 h, evaluated after 13 days; for pest or weed control at 15.625 g/ha: 15.625 g ai/ha; for pest or weed control at 15.625 g/ha / pest or weed control at 250 g/ha: read-out: Pigweed, Redroot damage rating (100=total damage to plant; 0=no damage to plant); for pest or weed control at 62.5 g/ha: 62.5 g ai/ha, 100=total damage to plant, 0=no damage to plant, read-out: plant damage rating, Pigweed, Redroot; for pest or weed control at 250 g/ha: 250 g ai/ha
# Method in brief: as §2
# [12] = test system: barnyardgrass (Echinochloa crus-galli); experiment: Test G Pre-Emergence Protocol; conditions: Echinochloa crus-galli, pre-emergence, 312 h, evaluated after 13 days; for pest or weed control at 15.625 g/ha: 15.625 g ai/ha, read-out: Barnyard grass damage rating (100=total damage to plant; 0=no damage to plant); for pest or weed control at 62.5 g/ha: 62.5 g ai/ha, 100=total damage to plant, 0=no damage to plant, read-out: plant damage rating, Barnyardgrass; for pest or weed control at 250 g/ha: 250 g ai/ha, read-out: Barnyardgrass damage rating (100=total damage to plant; 0=no damage to plant)
# Method in brief: as §2
structure (smiles),measurement,setting,value
Cc1nnc(NC(=O)[C@@H]2C(=O)N(C)C[C@H]2c2ccc(C(F)(F)F)cc2)s1 (racemic) [Compound 1559],plant injury at 15.625 g/ha,corn (Zea mays) [1],0%
same,plant injury at 62.5 g/ha,corn (Zea mays) [1],0%
same,plant injury at 250 g/ha,corn (Zea mays) [1],0%
same,pest or weed control at 15.625 g/ha,[2],0%
same,pest or weed control at 62.5 g/ha,[2],0%
same,pest or weed control at 250 g/ha,[2],0%
same,pest or weed control at 15.625 g/ha,[3],0%
same,pest or weed control at 62.5 g/ha,[3],0%
same,pest or weed control at 250 g/ha,[3],0%
same,pest or weed control at 15.625 g/ha,[4],0%
same,pest or weed control at 62.5 g/ha,[4],0%
same,pest or weed control at 250 g/ha,[4],0%
same,pest or weed control at 15.625 g/ha,[5],0%
same,pest or weed control at 62.5 g/ha,[5],0%
same,pest or weed control at 250 g/ha,[5],0%
same,pest or weed control at 15.625 g/ha,[6],0%
same,pest or weed control at 62.5 g/ha,[6],0%
same,pest or weed control at 250 g/ha,[6],0%
same,plant injury at 15.625 g/ha,corn (Zea mays) [7],0%
same,plant injury at 62.5 g/ha,corn (Zea mays) [7],0%
same,plant injury at 250 g/ha,corn (Zea mays) [7],0%
same,pest or weed control at 15.625 g/ha,[8],0%
same,pest or weed control at 62.5 g/ha,[8],0%
same,pest or weed control at 250 g/ha,[8],0%
same,pest or weed control at 15.625 g/ha,[9],0%
same,pest or weed control at 62.5 g/ha,[9],0%
same,pest or weed control at 250 g/ha,[9],0%
same,pest or weed control at 15.625 g/ha,[10],0%
same,pest or weed control at 62.5 g/ha,[10],0%
same,pest or weed control at 250 g/ha,[10],0%
same,pest or weed control at 15.625 g/ha,[11],0%
same,pest or weed control at 62.5 g/ha,[11],0%
same,pest or weed control at 250 g/ha,[11],0%
same,pest or weed control at 15.625 g/ha,[12],0%
same,pest or weed control at 62.5 g/ha,[12],0%
same,pest or weed control at 250 g/ha,[12],0%
CC(C)c1cc([C@H]2CN(C)C(=O)[C@@H]2C(=O)Nc2cccc(F)c2F)cnn1 (racemic) [Compound 1488],plant injury at 15.625 g/ha,corn (Zea mays) [1],0%
same,plant injury at 62.5 g/ha,corn (Zea mays) [1],10%
same,plant injury at 250 g/ha,corn (Zea mays) [1],0%
same,pest or weed control at 15.625 g/ha,[2],0%
same,pest or weed control at 62.5 g/ha,[2],0%
same,pest or weed control at 250 g/ha,[2],0%
same,pest or weed control at 15.625 g/ha,[3],0%
same,pest or weed control at 62.5 g/ha,[3],0%
same,pest or weed control at 250 g/ha,[3],30%
same,pest or weed control at 15.625 g/ha,[4],0%
same,pest or weed control at 62.5 g/ha,[4],0%
same,pest or weed control at 250 g/ha,[4],0%
same,pest or weed control at 15.625 g/ha,[5],0%
same,pest or weed control at 62.5 g/ha,[5],0%
same,pest or weed control at 250 g/ha,[5],0%
same,pest or weed control at 15.625 g/ha,[6],0%
same,pest or weed control at 62.5 g/ha,[6],20%
same,pest or weed control at 250 g/ha,[6],20%
same,plant injury at 15.625 g/ha,corn (Zea mays) [7],0%
same,plant injury at 62.5 g/ha,corn (Zea mays) [7],0%
same,plant injury at 250 g/ha,corn (Zea mays) [7],0%
same,pest or weed control at 15.625 g/ha,[8],0%
same,pest or weed control at 62.5 g/ha,[8],0%
same,pest or weed control at 250 g/ha,[8],0%
same,pest or weed control at 15.625 g/ha,[9],0%
same,pest or weed control at 62.5 g/ha,[9],0%
same,pest or weed control at 250 g/ha,[9],0%
same,pest or weed control at 15.625 g/ha,[10],0%
same,pest or weed control at 62.5 g/ha,[10],0%
same,pest or weed control at 250 g/ha,[10],0%
same,pest or weed control at 15.625 g/ha,[11],0%
same,pest or weed control at 62.5 g/ha,[11],0%
same,pest or weed control at 250 g/ha,[11],0%
same,pest or weed control at 15.625 g/ha,[12],0%
same,pest or weed control at 62.5 g/ha,[12],0%
same,pest or weed control at 250 g/ha,[12],0%

# Reference: patent publication US12077503B2, “Substituted cyclic amides and their use as herbicides” (FMC CORPORATION, priority 2015, dated 2024)
